In patent publication US20070249705A1, “N-(1-(2,3-Dihydro-1H-Inden-5Yl)-2-Oxo-3-Pyrrolidinyl)-Sulfonamide Derivatives for Use as Factor Xa Inhibitors” (priority 2004, published 2007):

Target: human Factor Xa (Homo sapiens, UniProt P00742)
Test: In vitro fluorogenic assay for inhibition of Factor Xa
Format: biochemical
Conditions: Ki = IC50/1.6
Description: In Vitro Assay for Inhibition of Factor Xa
Compounds of the present invention were tested for their Factor Xa inhibitory activity as determined in vitro by their ability to inhibit human Factor Xa in a fluorogenic assay, using Rhodamine 110, bis-CBZ-glycylglycyl-L-arginine amide as the fluorogenic substrate. Compounds were diluted from a 10 mM stock solution in dimethylsulfoxide at appropriate concentrations. Assay was performed at room temperature using buffer consisting of: 50 mM Tris-HCl, 150 mM NaCl, 5 mM CaCl2, pH 7.4 containing human Factor Xa (final concentration of 0.0003 U.ml-1). Compound and enzyme were preincubated for 15 min prior to addition of the substrate (final concentration of 10 μM). The reaction was stopped after 3 hrs with the addition of H-D-Phe-Pro-Arg-Chloromethylketone. An LJL-Analyst fluorimeter was used to monitor fluorescence with 485 nm excitation/535 nm emission. To obtain IC50 values the data were analysed using ActivityBase® and XLfit®.
Calculation of Ki values:
Ki=IC50/(1+[Substrate]/Km)
The Ki value for the above assay can be obtained by dividing the IC50 value by 1.6.

Chain of human Factor Xa (P00742 235-488 limits assumed): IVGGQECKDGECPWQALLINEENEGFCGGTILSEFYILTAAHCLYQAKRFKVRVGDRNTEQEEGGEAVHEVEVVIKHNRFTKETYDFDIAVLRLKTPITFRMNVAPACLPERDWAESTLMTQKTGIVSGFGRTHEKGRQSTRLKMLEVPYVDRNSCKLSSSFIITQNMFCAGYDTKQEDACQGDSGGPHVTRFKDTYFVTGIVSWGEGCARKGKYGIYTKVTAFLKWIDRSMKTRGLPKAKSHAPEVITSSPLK
Chain of human Factor Xa (P00742 41-179 partner limits assumed): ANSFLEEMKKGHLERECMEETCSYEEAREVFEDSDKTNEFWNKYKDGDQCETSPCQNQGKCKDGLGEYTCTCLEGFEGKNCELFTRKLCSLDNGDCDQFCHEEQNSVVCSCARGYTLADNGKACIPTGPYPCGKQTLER

Row | Ki | Compound
1 | < 50 nM | CN(C)C1CCc2cc(N3CCC(NS(=O)(=O)c4cc5ccc(Cl)cc5s4)C3=O)ccc21 (centres unmarked) [Example 3, 6-Chloro-N-{1-[1-(dimethylamino)-2,3-dihydro-1H-inden-5-yl]-2-oxo-3-pyrrolidinyl}-1-benzothiophene-2-sulfonamide]
2 | < 50 nM | CNC1CCc2cc(N3CC[C@H](N(C)S(=O)(=O)c4ccc5cc(Cl)ccc5c4)C3=O)ccc21 (stereo partly drawn) [Example 12, 6-Chloro-N-methyl-N-{(3S)-1-[1-(methylamino)-2,3-dihydro-1H-inden-5-yl]-2-oxo-3-pyrrolidinyl}-2-naphthalenesulfonamide]
